Here are results for 1 compound from patent publication US11786507B2, “Methods of treating HIV-associated neurological disorders (HAND)” (priority 2020, dated 2023).

In one assay the test system is MAPK signaling pathways. Description: Western blotting of total and phosphorylated p38, JNK, ERK in cortex and hippocampus. It counts as in vivo, mouse. Conditions: PAM 15 mg/kg/day s.c. The text has this:
(§1) Doxycycline (Dox)-inducible and astrocyte-specific HIV-1 Tat-transgenic mice (iTat) were generated as previously described.^38 Wild-type (Wt, C57BL/6) and α7 nAChR knockout mice (α7^−/−, B6.129S7-Chrna^7tm1Ba/J) were purchased from the Jackson Laboratory (Bar Harbor, ME). All the animal procedures were approved by the Institutional Animal Care and Use Committee. Mice were housed with a 12-hour light and 12-hour dark photoperiod and provided water and food ad libitum. α7^−/− iTat mice were generated by cross breeding iTat mice with α7^−/− mice. α7^−/− genotyping was slightly modified with the JumpStart™ Taq DNA Polymerase-based PCR (JumpStart™ Taq DNA Polymerase, Sigma, catalog #D9307). […] Mice of 10-14 weeks old with body weights of 20-35 grams were fed with Dox-containing diet (0.625 g/kg, Envigo, catalog #TD.01306) as stated.
(§2) A RIPA buffer (50 mM Tris.HCl, pH 8.0, 280 mM NaCl, 0.5% NP-40, 1% C24H39NaO4, 0.2 mM EDTA, 2 mM EGTA and 10% glycerol) supplemented with protease inhibitors (Millipore-Sigma, catalog #S8830) and phosphatase inhibitors (Millipore-Sigma, catalog #4906845001) was used to lyse the brain tissues and cultured cells with brief sonication on ice. Protein concentrations of the lysates were determined using a Bio-Rad DC protein assay kit (Bio-Rad, catalog #5000111). Lysates were denatured in the SDS-PAGE loading buffer at 100° C. for 10 min, then electrophoretically separated by 8-15% SDS-PAGE, blotted onto 0.45 μm polyvinylidene fluoride membrane (GE Healthcare Life Sciences, catalog #10600023), and probed using appropriate antibodies against PSD-95 (Abcam, catalog #ab18258, and 1:2000 dilution), SYP (Abcam, catalog #ab8049, and 1:1000 dilution), Iba-1 (Wako, catalog #016-20001, and 1:500 dilution) and GFAP (DAKO, catalog #z330s, and 1:2000 dilution), p-p38 (Santa Cruz, catalog #sc-166182, and 1:1000 dilution), p38 (Santa cruz, catalog #sc-535, and 1:1000 dilution), p-JNK (Santa cruz, catalog #sc-6254, and 1:1000 dilution), JNK (Santa cruz, catalog #sc-571, and 1:1000 dilution), p-ERK (Santa cruz, catalog #sc-7383, and 1:1000 dilution), and ERK (Santa cruz, catalog #sc-514302, and 1:1000 dilution), α7 nAChR (Alomone, catalog #ANC-007, and 1:1000 dilution) and β-actin (Sigma-Aldrich, catalog #A1978, and 1:2000 dilution). A Bio-Rad ChemicDoc imaging system (Bio-Rad) and Image J were used for image capturing and analysis, respectively.
It was next determined which MAPK signaling pathways were responsive to PAM neuroprotective effects against Tat-induced neuropathologies. Both CORT and HIP were analyzed for expression and phosphorylation of p38, JNK, and ERK.
For orientation: A western blot detects proteins with antibodies after separation by electrophoresis.

The next assay concerns iTat mice. Nature of the assay: Western blotting of SYP, PSD-95, GFAP, Iba-1 in cortex and hippocampus. Type of assay: in vivo, mouse.
Source text: as §1
as §2, with “respectively. […]” for “respectively.”

[1] abbreviates: CORT, PAM 15 mg/kg/day s.c. vs DMSO.

“Also recorded” adds a separate entry of the source.

In the case of `COc1cc(OC)c(NC(=O)Nc2cc(C)on2)cc1Cl` [PAM, 1-(5-chloro-2,4-dimethoxy-phenyl)-3-(5-methyl-isoxazol-3-yl)-urea], the “p38 and p-p38α” value in the assay on MAPK signaling pathways (CORT and HIP) is “increases of both p38 and p-p38α in both CORT and HIP”. Also, the p-ERK result in the assay on MAPK signaling pathways (CORT and HIP, iTat and Wt mice) was “no differences of p-ERK in CORT and HIP of both iTat and Wt mice”. The JNK result in the assay with MAPK signaling pathways (CORT, Wt and iTat mice) is reported as “increases of JNK in CORT of Wt mice, increases of JNK in CORT of iTat mice”. In addition, the p-JNK result in the assay with MAPK signaling pathways (CORT, all mice) is “no differences of p-JNK in CORT of all mice”. In addition, the “JNK and p-JNK” value with MAPK signaling pathways (HIP, all mice) was “increases of JNK and p-JNK in HIP of all mice”. In the assay with MAPK signaling pathways (HIP, iTat mice), the ERK entry is reported as “decreases of ERK in HIP of iTat mice”. Moreover, in the assay with iTat mice (setting [1]), the GFAP expression entry is recorded as “completely reversed the increases; also recorded: decreased GFAP in iTat mice”; the Iba-1 expression result is “decreased Iba-1 in both Wt and iTat mice”; the PSD-95 expression entry was “significant increases of PSD-95 in Wt mice and even more in iTat mice”; the SYP expression result was “no changes”. Further, the “SYP and GFAP expression” value in the assay on iTat mice (HIP, DMSO- vs PAM-treated mice) is “no differences of SYP and GFAP”. In addition, the PSD-95 expression entry in the assay on iTat mice (HIP, PAM 15 mg/kg/day s.c. vs DMSO) is “increased PSD-95 in both Wt and iTat mice”.
